Experiments:
[1] = target: T1, Keap1-Nrf2 PPI (Keap1 kelch domain protein, FITC labeled Nrf2 9 peptide) (Homo sapiens, UniProt Q14145); test: Fluorescence polarization based Keap1-Nrf2 PPI competitive inhibition experiment (FP experiment); format: binding
T1 construct: 10 μL 12 nm Keap1 kelch domain protein
Protocol: 1. Keap1-Nrf2 PPI Competitive Inhibition Test Based on Fluorescence Polarization (FP Experiment)
The 384-well blackboard model 3676 produced by Corning is used in FP experiment, with a total volume of reaction of 40 μL. 20 μL compound, 10 μL 4 nm FITC labeled Nrf2 9 peptide, 10 μL 12 nm Keap1 kelch domain protein are added to the well in order. 20 μL 200 nM DDO-1002, 10 μL 4 nM of the FITC-labeled Nrf2 9 peptide, 10 μL 12 nM of Keap1 Ketch domain protein are used in the positive control; 20 μL HEPES buffer, 10 μL 4 nM of the FITC-labeled Nrf2 9 peptide, 10 μL, 12 nM of Keap1 Kelch domain protein are used in the negative control; 10 μL 4 nM of the FITC-labeled Nrf2 9 peptide, 30 μL of HEPES buffer are used in the blank control. After addition is complete, they are incubated for 30 min at room temperature. The detection instrument is a SpectraMax Multi-Mode Microplate Reader (Molecular Devices), the excitation light wavelength selected is 485 nm, the emission light wavelength is 545 nm, and the fluorescence intensity in the horizontal and vertical directions is detected to calculate the polarization value. The inhibition rate is calculated as: inhibition %=[…]/(Pmax−Pmin) wherein Pobs is the polarization value of the compound well, Pmax is the polarization value of the negative control well, and Pmin is the polarization value of the blank well. Data treatment is performed using GraphPad Prism, and IC50 of the compound is calculated using a concentration-inhibition rate curve. The IC50 values for each compound are as previously described.

HepG2-ARE-C8 cells = test: ARE luciferase reporter gene experiment; format: cell-based; settings: compound acts 12 h, ratio to DMSO group, FIG. 1, in words
Protocol: 2. ARE Luciferase Reporter Gene Experiment
HepG2-ARE-C8 cells in log growth phase (these cells are given by A. N. Tony Kong of Rutgers University) are digested with 0.1% pancreatin to prepare a cell suspension, the cell suspension is added to a 96-well microtiter plate at a cell concentration of 4×10^5/mL, added 100 μL per well, and after overnight culture, a DMSO group serves as a negative control, t-BHQ serves as a positive control, and a cell culture lysis reagent serves as a background value. The compound is allowed to act for 12 h, three replicate wells were provided, the growth medium is carefully pipetted from the cells to be examined, 100 μL of pre-cooled. […] 100 μL luciferase detection reagent is added to each well and read immediately. […] Typical delay time is 2 seconds, typical reading time is 10 seconds, and the last measured data is divided from the DMSO group. […]
By a fluorescence polarization based Keap1-Nrf2 PPI competitive inhibition experiment we have shown that on the target level, some compounds (compound numbers see FIG. 1) are able to efficiently compete for binding to Keap1 and thereby activating Nrf2. […] When luciferin is present in a substrate, the […], and the activation capability of a compound on Nrf2 is indirectly reflected by means of fluorescence intensity. […]

T1 sequence (Q14145 321-609 limits assumed): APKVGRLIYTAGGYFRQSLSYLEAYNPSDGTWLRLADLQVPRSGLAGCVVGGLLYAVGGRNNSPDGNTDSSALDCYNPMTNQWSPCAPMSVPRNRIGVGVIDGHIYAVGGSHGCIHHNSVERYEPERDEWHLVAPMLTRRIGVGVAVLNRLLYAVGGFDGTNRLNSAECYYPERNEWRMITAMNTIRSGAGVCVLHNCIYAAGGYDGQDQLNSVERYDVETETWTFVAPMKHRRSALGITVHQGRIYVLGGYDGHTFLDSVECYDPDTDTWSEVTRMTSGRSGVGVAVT

C#CCN(c1ccc(N(CC(=O)O)S(=O)(=O)c2c(C)cc(OC)cc2C)c2ccccc12)[C@@H](C)CC(=O)O [DDO-1221]
IC50 ([1]; FP experiment, general formula V / VI compounds): 5.8 nM | target activity in the FP assay ([1]; in words): optimal target activity | ARE luciferase reporter gene activity (fold induction), cell activity (HepG2-ARE-C8 cells): does not have the optimal cell activity

— patent US11773057B2, “Naphthalenesulfonamide compound, preparation method, and application” (CHINA PHARMACEUTICAL UNIVERSITY, priority 2019, dated 2023)
